In patent US20190008920A1, “OPHTHALMIC COMPOSITIONS AND METHODS OF USE” (Ocugen, Inc., priority 2017, published 2019):

Assays:
[1] = ophthalmic solution 5.0%, administered twice daily; cited from earlier work
[2] = brimonidine tartrate + cyclosporine nanoemulsion formulation
Experimental: The partitioning of active pharmaceutical ingredients in oil and aqueous phases of these exemplary nanoemulsion formulations were determined using RP-HPLC methods. […] In nanoemulsion formulation, oil and aqueous phase were separated using ultrafiltration unit by centrifugation process. Quantity of APIs in these oil and aqueous phase was quantified using HPLC method.

Structure (SMILES) | symptoms of ocular discomfort and eye dryness compared with placebo [1] | fraction of API partitioned in aqueous phase ([2]; aqueous phase) [%] | fraction of API partitioned in oil phase ([2]; oil phase) [%]
CS(=O)(=O)c1cccc(C[C@H](NC(=O)c2c(Cl)cc3c(c2Cl)CCN(C(=O)c2ccc4ccoc4c2)C3)C(=O)O)c1 [Lifitegrast, N-{[2-(1-Benzofuran-6-ylcarbonyl)-5,7-dichloro-1,2,3,4-tetrahydro-6-isoquinolinyl]carbonyl}-3-(methylsulfonyl)-L-phenylalanine] | improve symptoms of ocular discomfort and eye dryness |  | 
Brc1c(NC2=NCCN2)ccc2nccnc12 [brimonidine, 5-Bromo-N-(4,5-dihydro-1H-imidazol-2-yl) quinoxalin-6-amine] |  | ~70 | ~30
